# Data taken from patent publication US10570121B2, “Substituted dihydroisoquinolinone compounds” (priority 2014, dated 2020).
# Where two headings read alike, the source gives them in different places.
# Legend:
# Assay type in all cases: biochemical
# WT EZH2 [1] = biological target: T1, WT EZH2 (Homo sapiens (Human), UniProt Q15910); experiment: WT EZH2 nucleosome assay; conditions: PRC2 4-protein complex 4 nM, 1.5 μM SAM, HeLa oligonucleosomes
# Experimental: The genes for EZH2, EED, SUZ12, and RBBP4 proteins were cloned into pBacPAK9 vectors (Clontech). RBBP4 was FLAG tagged on the N-terminal end. The baculovirus expressions of these proteins were used to co-infect SF9 insect cells. Insect cell pellets were lysed in a buffer containing 25 mM Tris pH8.0, 300 mM NaCl, 0.5 mM TCEP, complete EDTA-free protease inhibitor (Roche), 0.1% NP-40. The supernatant from the lysate was incubated with FLAG® M2 antibody resin (Sigma). The resin was washed on the chromatography column and eluted with 0.2 mg/ml FLAG peptide. The elute was incubated with omnicleave nucleases (Epicentre Technologies) at 4° C. overnight, then concentrated and loaded onto a Superdex 200 (GE Healthcare) column. The Superdex 200 column was eluted with 25 mM Tris pH8.0, 150 mM NaCl, 0.5 mM TCEP. Fractions containing the PRC2 complex were pooled.
# A. Compound preparation • 1.
# B. Reagent preparation • 1. […] Dilute TCA to 20% in DI water
# C. Enzyme reaction • 1. […] Some compounds were tested under high SAM conditions.
# D. Data analysis • 1. IC50 values were determined by fitting the data to a 4-parameter IC50 equation using proprietary curve fitting software. • 2. For compounds tested under high SAM conditions, Ki^app values were obtained by fitting the dose response curve to a model for competitive inhibition using proprietary curve fitting software. Preparation of HeLa Oligonucleosomes: Reagents • Cell Pellet: 15 L HeLa S3 (Accelgen)+6 L HeLa S3 (in house) • Mnase (Worthington Biochemicals) Equipment • SW-28 Rotor • Dounce Homogenizer/B Pestle Buffers • Lysis: 20 mM Hepes pH 7.5, 0.25M Sucrose, 3 mM MgCl2, 0.5% Nonidet P-40, 0.5 mM TCEP, 1 Roche Protease Tablet • B: 20 mM Hepes pH7.5, 3 mM MgCl2, 0.5 mM EDTA, 0.5 mM TCEP, 1 Roche Protease Tablet • MSB: 20 mM Hepes pH7.5, 0.4 M NaCl, 1 mM EDTA, 5% v/v Glycerol, 0.5 mM TCEP, 0.2 mM PMSF • LSB: 20 mM Hepes pH7.5, 0.1M NaCl, 1 mM EDTA, 0.5 mM TCEP, 0.2 mM PMSF • NG: 20 mM Hepes pH7.5, 1 mM EDTA, 0.4 m NaCl, 0.2 mM PMSF, 0.5 mM TCEP • Storage: 20 mM Hepes pH7.5, 1 mM EDTA, 10% Glycerol, 0.2 mM PMSF, 0.5 mM TCEP Protocol
# WT EZH2 [2] = biological target: T1, WT EZH2; experiment: WT EZH2 nucleosome assay (10X SAM, high SAM conditions); conditions: 15 uM SAM, Ki app from competitive inhibition fit
# EZH2 Mutant Y641N = EZH2 Mutant Y641N (Homo sapiens (Human), UniProt Q15910, Y641N); experiment: EZH2 Mutant Y641N nucleosome assay; conditions: PRC2 4-protein complex 6 nM, 1.5 μM SAM, HeLa oligonucleosomes
# [3] = read-out: WT EZH2 Nucleosome assay IC50
# [4] = read-out: WT EZH2 Nucleosome assay (10X SAM) Ki
# [5] = read-out: EZH2 Mutant Y641N Nucleosome assay IC50
# [6] = WT EZH2 Nucleosome assay IC50 (μM)
# [7] = EZH2 Mutant Y641N Nucleosome assay IC50 (μM)
# T1 sequence (Q15910 whole entry, looked up): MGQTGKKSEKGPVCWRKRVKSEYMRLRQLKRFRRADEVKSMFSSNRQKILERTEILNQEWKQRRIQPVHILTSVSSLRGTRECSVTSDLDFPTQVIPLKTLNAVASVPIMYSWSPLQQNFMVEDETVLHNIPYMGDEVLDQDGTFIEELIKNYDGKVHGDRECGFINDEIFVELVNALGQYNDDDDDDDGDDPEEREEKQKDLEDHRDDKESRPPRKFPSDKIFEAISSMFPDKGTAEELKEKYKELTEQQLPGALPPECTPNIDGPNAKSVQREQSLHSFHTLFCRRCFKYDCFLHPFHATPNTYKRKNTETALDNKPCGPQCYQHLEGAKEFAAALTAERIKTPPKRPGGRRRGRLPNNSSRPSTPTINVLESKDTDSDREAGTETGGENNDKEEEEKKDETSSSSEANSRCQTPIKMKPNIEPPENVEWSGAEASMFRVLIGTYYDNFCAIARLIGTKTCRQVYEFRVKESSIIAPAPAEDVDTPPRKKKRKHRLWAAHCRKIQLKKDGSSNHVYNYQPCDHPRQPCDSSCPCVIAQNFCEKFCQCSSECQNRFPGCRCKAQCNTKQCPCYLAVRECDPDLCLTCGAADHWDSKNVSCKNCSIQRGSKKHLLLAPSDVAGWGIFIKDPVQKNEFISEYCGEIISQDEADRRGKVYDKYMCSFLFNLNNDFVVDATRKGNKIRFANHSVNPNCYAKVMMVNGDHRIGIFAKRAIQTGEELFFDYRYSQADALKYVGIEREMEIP
# T1 sequence (O75530 whole entry partner, looked up): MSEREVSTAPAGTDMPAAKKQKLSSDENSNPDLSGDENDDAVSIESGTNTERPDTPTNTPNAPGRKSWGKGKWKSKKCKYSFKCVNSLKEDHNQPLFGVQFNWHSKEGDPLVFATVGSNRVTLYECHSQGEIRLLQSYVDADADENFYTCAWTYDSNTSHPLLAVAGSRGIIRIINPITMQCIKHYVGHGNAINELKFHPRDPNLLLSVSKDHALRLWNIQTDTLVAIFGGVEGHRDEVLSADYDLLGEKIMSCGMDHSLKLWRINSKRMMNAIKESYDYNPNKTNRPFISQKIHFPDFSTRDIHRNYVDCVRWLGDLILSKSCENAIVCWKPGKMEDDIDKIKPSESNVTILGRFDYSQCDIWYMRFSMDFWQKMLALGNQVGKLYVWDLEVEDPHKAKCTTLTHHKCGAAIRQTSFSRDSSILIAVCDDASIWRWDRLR
# T1 sequence (Q15022 whole entry partner, looked up): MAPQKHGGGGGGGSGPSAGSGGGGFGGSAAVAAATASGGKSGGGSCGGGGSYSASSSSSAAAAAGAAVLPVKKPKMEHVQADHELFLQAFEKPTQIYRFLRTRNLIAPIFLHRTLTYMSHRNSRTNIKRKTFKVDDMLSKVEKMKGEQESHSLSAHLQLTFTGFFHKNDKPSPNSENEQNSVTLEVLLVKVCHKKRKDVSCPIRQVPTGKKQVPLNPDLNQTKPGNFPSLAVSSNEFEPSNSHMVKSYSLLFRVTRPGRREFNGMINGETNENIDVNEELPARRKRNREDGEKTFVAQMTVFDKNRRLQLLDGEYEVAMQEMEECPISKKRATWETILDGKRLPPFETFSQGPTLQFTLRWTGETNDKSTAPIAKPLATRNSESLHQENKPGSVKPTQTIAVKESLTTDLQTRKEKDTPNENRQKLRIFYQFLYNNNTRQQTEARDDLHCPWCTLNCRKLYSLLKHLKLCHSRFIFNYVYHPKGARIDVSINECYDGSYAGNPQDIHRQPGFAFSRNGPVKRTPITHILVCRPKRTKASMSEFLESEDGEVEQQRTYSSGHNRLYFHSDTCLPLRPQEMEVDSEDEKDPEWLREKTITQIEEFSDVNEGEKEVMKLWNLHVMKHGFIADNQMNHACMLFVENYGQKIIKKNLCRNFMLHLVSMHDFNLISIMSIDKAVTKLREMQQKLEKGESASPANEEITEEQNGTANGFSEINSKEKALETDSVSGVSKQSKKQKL
# T1 sequence (Q09028 whole entry partner, looked up): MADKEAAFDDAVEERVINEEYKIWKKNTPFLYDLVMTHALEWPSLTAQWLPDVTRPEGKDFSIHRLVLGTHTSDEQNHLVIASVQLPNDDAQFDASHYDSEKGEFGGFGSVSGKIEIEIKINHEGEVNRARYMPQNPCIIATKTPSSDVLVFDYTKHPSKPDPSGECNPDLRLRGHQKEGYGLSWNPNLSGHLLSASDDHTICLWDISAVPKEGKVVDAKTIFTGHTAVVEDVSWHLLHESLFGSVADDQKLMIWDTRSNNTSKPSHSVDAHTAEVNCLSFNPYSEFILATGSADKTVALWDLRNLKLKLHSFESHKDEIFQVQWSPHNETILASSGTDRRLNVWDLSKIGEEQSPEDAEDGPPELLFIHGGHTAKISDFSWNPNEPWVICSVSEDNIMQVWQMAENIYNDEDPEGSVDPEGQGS
# Sequence of EZH2 Mutant Y641N (Q15910 whole entry Y641N, looked up): as the sequence (Q15910 whole entry, looked up) above, with Y641N counted along it
# Sequence of EZH2 Mutant Y641N (O75530 whole entry partner, looked up): as the sequence (O75530 whole entry partner, looked up) above
# Sequence of EZH2 Mutant Y641N (Q15022 whole entry partner, looked up): as the sequence (Q15022 whole entry partner, looked up) above
# Sequence of EZH2 Mutant Y641N (Q09028 whole entry partner, looked up): as the sequence (Q09028 whole entry partner, looked up) above
SMILES,IC50 (WT EZH2 [1]; [6]),IC50 (EZH2 Mutant Y641N; [7]),Ki (WT EZH2 [2]; WT EZH2 Nucleosome assay (10X SAM) Ki (μM)),IC50 (WT EZH2 [1]; [3]),Ki (WT EZH2 [2]; [4]),IC50 (EZH2 Mutant Y641N; [5])
Cc1cc(C)c(CN2CCc3c(Cl)cc([C@H](C)CO)c(Cl)c3C2=O)c(=O)[nH]1 [Example 18],,,,0.126 µM,0.115 µM,0.995 µM
Cc1cc(C)c(CN2CCc3c(Cl)cc([C@@H](C)CO)c(Cl)c3C2=O)c(=O)[nH]1 [Example 19],,,,0.013 µM,0.01 µM,0.132 µM
"CCC(CO)c1cc(Cl)c2c(c1Cl)C(=O)N(Cc1c(C)cc(C)[nH]c1=O)CC2 (single isomer, unassigned) [Example 29]",0.017 µM,0.107 µM,,,,
Cc1cc(C)c(CN2CCc3c(Cl)cc(C(C)C4CCN(C(=O)CO)CC4)c(Cl)c3C2=O)c(=O)[nH]1 (racemic) [Example 24],,,,0.004 µM,,0.008 µM
"CCC(CO)c1cc(Cl)c2c(c1Cl)C(=O)N(Cc1c(C)cc(C)[nH]c1=O)CC2 (single isomer, unassigned) [Example 30]",0.004 µM,0.02 µM,,,,
CCC(O)c1cc(Cl)c2c(c1Cl)C(=O)N(Cc1c(C)cc(C)[nH]c1=O)CC2 (racemic) [Example 25],0.084 µM,0.693 µM,,,,
"CCC(O)c1cc(Cl)c2c(c1Cl)C(=O)N(Cc1c(C)cc(C)[nH]c1=O)CC2 (single isomer, unassigned) [Example 28]",0.126 µM,1.89 µM,,,,
Cc1cc(C)c(CN2CCc3c(Cl)cc(CC4CCN(C(=O)CO)CC4)c(Cl)c3C2=O)c(=O)[nH]1 [Example 23],,,,0.009 µM,,0.067 µM
Cc1cc(C)c(CN2CCc3c(Cl)cc(C(C)C#N)c(Cl)c3C2=O)c(=O)[nH]1 (racemic) [Example 32],,,,0.093 µM,,1.13 µM

# More lines, main results first:
IC50 (WT EZH2 [1]; [6]),IC50 (EZH2 Mutant Y641N; [7]),Ki (WT EZH2 [2]; WT EZH2 Nucleosome assay (10X SAM) Ki (μM)),SMILES,IC50 (WT EZH2 [1]; [3]),Ki (WT EZH2 [2]; [4]),IC50 (EZH2 Mutant Y641N; [5])
0.105 µM,0.443 µM,0.136 µM,"COC(c1cc(Cl)c2c(c1Cl)C(=O)N(Cc1c(C)cc(C)[nH]c1=O)CC2)C1CCN(C(=O)CO)CC1 (single isomer, unassigned) [Example 36, 5,8-dichloro-2-[(4,6-dimethyl-2-oxo-1,2-dihydropyridin-3-yl)methyl]-7-{[1-(hydroxyacetyl)piperidin-4-yl](methoxy)methyl}-3,4-dihydroisoquinolin-1(2H)-one]",,,
0.378 µM,0.74 µM,,"Cc1cc(C)c(CN2CCc3c(Cl)cc(C(CO)C4CCOCC4)c(Cl)c3C2=O)c(=O)[nH]1 (single isomer, unassigned) [Example 38]",,,
0.002 µM,0.002 µM,,"COC(c1cc(Cl)c2c(c1Cl)C(=O)N(Cc1c(C)cc(C)[nH]c1=O)CC2)C1CCN(C(=O)CO)CC1 (single isomer, unassigned) [Example 35, 5,8-dichloro-2-[(4,6-dimethyl-2-oxo-1,2-dihydropyridin-3-yl)methyl]-7-{[1-(hydroxyacetyl)piperidin-4-yl](methoxy)methyl}-3,4-dihydroisoquinolin-1(2H)-one]",,,
